Reference: BindingDB's records for doi:10.1021/jm300601d (Boehringer Ingelheim Pharmaceuticals, 2012)

assay: Inhibition of NHE1 in human platelet rich plasma assessed as reduction of propionate medium induced platelet swelling measured every 6 secs for 5 mins

Row | EC50 [nM] | SMILES
1 | 23 | N=C(N)NC(=O)c1ccc(C2CCN(C(=O)c3ccc(S(N)(=O)=O)cc3)CC2)c(C(F)(F)F)c1
2 | 111 | Cn1ccnc1C(=O)N1CCC(c2ccc(C(=O)NC(=N)N)cc2C(F)(F)F)CC1
3 | 62 | Cn1cncc1C(=O)N1CCC(c2ccc(C(=O)NC(=N)N)cc2C(F)(F)F)CC1
4 | 989 | N=C(N)NC(=O)c1ccc(C2CCN(C(=O)c3cccc(Cl)c3)CC2)c(C(F)(F)F)c1
5 | 241 | N=C(N)NC(=O)c1ccc(C2CCN(C(=O)c3ccc[nH]3)CC2)c(C(F)(F)F)c1
6 | 36 | N=C(N)NC(=O)c1ccc(C2CCN(C(=O)c3ccc(C(N)=O)cc3)CC2)c(C(F)(F)F)c1
7 | 495 | N=C(N)NC(=O)c1ccc(C2CCN(C(=O)c3ccccc3Cl)CC2)c(C(F)(F)F)c1
8 | 77 | CN(C)C(=O)c1ccc(C(=O)N2CCC(c3ccc(C(=O)NC(=N)N)cc3C(F)(F)F)CC2)cc1
9 | 353 | N=C(N)NC(=O)c1ccc(C2CCN(C(=O)c3cccc(-c4cnco4)c3)CC2)c(C(F)(F)F)c1
10 | 241 | CN(C)S(=O)(=O)c1ccc(C(=O)N2CCC(c3ccc(C(=O)NC(=N)N)cc3C(F)(F)F)CC2)cc1
11 | 184 | N=C(N)NC(=O)c1ccc(C2CCN(C(=O)c3ccc(F)cc3)CC2)c(C(F)(F)F)c1
12 | 200 | N#Cc1ccccc1C(=O)N1CCC(c2ccc(C(=O)NC(=N)N)cc2C(F)(F)F)CC1
13 | 88 | CNS(=O)(=O)c1ccc(C(=O)N2CCC(c3ccc(C(=O)NC(=N)N)cc3C(F)(F)F)CC2)cc1
14 | 138 | N=C(N)NC(=O)c1ccc(C2CCN(C(=O)c3ccc(O)cc3)CC2)c(C(F)(F)F)c1
15 | 25 | N=C(N)NC(=O)c1ccc(C2CCN(C(=O)c3ccc(=O)[nH]c3)CC2)c(C(F)(F)F)c1
16 | 32 | N=C(N)NC(=O)c1ccc(C2CCN(C(=O)c3cccnc3)CC2)c(C(F)(F)F)c1
17 | 70 | N=C(N)NC(=O)c1ccc(C2CCN(C(=O)c3ccncc3)CC2)c(C(F)(F)F)c1
18 | 169 | N=C(N)NC(=O)c1ccc(C2CCN(C(=O)c3ccc(-n4ccnc4)cc3)CC2)c(C(F)(F)F)c1
19 | 115 | Cc1cc(C(=O)N2CCC(c3ccc(C(=O)NC(=N)N)cc3C(F)(F)F)CC2)nn1C
20 | 93 | CS(=O)(=O)c1ccc(C(=O)N2CCC(c3ccc(C(=O)NC(=N)N)cc3C(F)(F)F)CC2)cc1
21 | 1130 | N=C(N)NC(=O)c1ccc(C2CCN(C(=O)c3ccc(Cl)cc3)CC2)c(C(F)(F)F)c1
22 | 498 | COc1ccc(C(=O)N2CCC(c3ccc(C(=O)NC(=N)N)cc3C(F)(F)F)CC2)cc1
23 | 50 | CS(=O)(=O)c1cccc(C(=O)N2CCC(c3ccc(C(=O)NC(=N)N)cc3C(F)(F)F)CC2)c1
24 | 214 | CNC(=O)c1ccc(C(=O)N2CCC(c3ccc(C(=O)NC(=N)N)cc3C(F)(F)F)CC2)cc1
25 | 79 | N=C(N)NC(=O)c1ccc(C2CCN(C(=O)c3ccccn3)CC2)c(C(F)(F)F)c1
26 | 269 | CS(=O)(=O)c1ccccc1C(=O)N1CCC(c2ccc(C(=O)NC(=N)N)cc2C(F)(F)F)CC1
27 | 109 | N=C(N)NC(=O)c1ccc(C2CCN(C(=O)c3ccccc3)CC2)c(C(F)(F)F)c1
28 | 539 | N=C(N)NC(=O)c1ccc(C2CCN(C(=O)c3ccc(C(F)(F)F)cc3)CC2)c(C(F)(F)F)c1
29 | 111 | N#Cc1cccc(C(=O)N2CCC(c3ccc(C(=O)NC(=N)N)cc3C(F)(F)F)CC2)c1

The next lines start with the molecule.

Row | SMILES | EC50 [nM]
30 | N=C(N)NC(=O)c1ccc(N2CCC(NC(=O)c3ccc[nH]3)CC2)c(C(F)(F)F)c1 | 950
31 | COCC(=O)N1CCC(c2ccc(C(=O)NC(=N)N)cc2C(F)(F)F)CC1 | 48
32 | N#Cc1ccc(C(=O)N2CCC(c3ccc(C(=O)NC(=N)N)cc3C(F)(F)F)CC2)cc1 | 152
33 | CC(C)C(=O)N1CCC(c2ccc(C(=O)NC(=N)N)cc2C(F)(F)F)CC1 | 79
34 | CCC(=O)N1CCC(c2cc(C)c(C(=O)NC(=N)N)cc2S(C)(=O)=O)CC1 | 88
35 | CC(=O)N1CCC(c2cc(C)c(C(=O)NC(=N)N)cc2C(F)(F)F)CC1 | 28
36 | N=C(N)NC(=O)c1ccc(C2CCN(C(=O)C3CCCC3)CC2)c(C(F)(F)F)c1 | 416
37 | CCCC(=O)N1CCC(c2ccc(C(=O)NC(=N)N)cc2C(F)(F)F)CC1 | 201
38 | COc1cc(C2CCN(C(C)=O)CC2)c(C(F)(F)F)cc1C(=O)NC(=N)N | 432
39 | N=C(N)NC(=O)c1ccc(C2CCN(C(=O)C3CC3)CC2)c(C(F)(F)F)c1 | 50
40 | CCC(=O)N1CCC(c2ccc(C(=O)NC(=N)N)cc2S(C)(=O)=O)CC1 | 266
41 | N=C(N)NC(=O)c1ccc(C2CCN(C(=O)c3ccc(-c4cnco4)cc3)CC2)c(C(F)(F)F)c1 | 368
42 | CCC(=O)N1CCC(c2ccc(C(=O)NC(=N)N)cc2C(F)(F)F)CC1 | 31
43 | CC(=O)N1CCC(c2cc(C)c(C(=O)NC(=N)N)cc2S(C)(=O)=O)CC1 | 56
44 | CC(C)(C)C(=O)N1CCC(c2ccc(C(=O)NC(=N)N)cc2C(F)(F)F)CC1 | 127
45 | N=C(N)NC(=O)c1ccc(N2CCC(NC(=O)c3ccc[nH]3)C2)c(C(F)(F)F)c1 (centres undefined) | 1590
46 | CC(=O)N1CCC(c2ccc(C(=O)NC(=N)N)cc2S(C)(=O)=O)CC1 | 189
47 | N=C(N)NC(=O)c1ccc(N2CCCC(NC(=O)c3ccc[nH]3)C2)c(C(F)(F)F)c1 (centres undefined) | 3480
48 | CC(C)CC(=O)N1CCC(c2ccc(C(=O)NC(=N)N)cc2C(F)(F)F)CC1 | 221
49 | N=C(N)NC(=O)c1ccc(N2CCN(C(=O)c3ccc[nH]3)CC2)c(C(F)(F)F)c1 [SABIPORIDE] | 172
